For one series, the system named is Hep-2. The series is described as follows: In vitro cytotoxicity screening (sulphodamine B dye), Hep-2. Type of series: cell-based. Particulars: Homo sapiens, read-out: cell growth inhibition. Here is the method: (§1) Cells at sub confluent stage were harvested from the flask by treatment with trypsin (0.5% in PBS containing 0.02% EDTA) for determination of cytotoxicity. Cells with viability of more than 98%, as determined by trypan blue, were used for assay. The cell suspensions of required cell density were prepared in complete growth medium with gentamycin (50 μg/ml) for determination of cytotoxicity. The cells (100 μl/well) were inoculated in 96 well tissue culture plates. The cells were allowed to grow for 24 hrs temperature of 37° C. and in a humidified atmosphere of 5% CO2 in air. Stock solution of (20 mM) of test material was prepared in DMSO. The stock solution was serially diluted with complete growth medium containing 50 μg/ml of gentamycin to obtain […] working test solutions of 1., 2, 5, 10, 50 and 100 μM. In vitro cytotoxicity (IC50 value) against human cancer cell lines was determined using sulphodamine B dye.^5,6 The results are summarized in table 4.
(§2) The human Cancer Cell lines were obtained either from National Center for Cell Science, Pune, India or National Cancer Institute, Frederick, U.S.A. The human cancer cell colon: SW-620, prostrate, PC-3, DU-145 and acute lymphoblastic leukemia (MOLT-4) were grown and maintained in RPMI-1640 medium, pH 7.4, HEP-2. […]

Series [1] relates to Ehrlich Ascites Carcinoma (EAC). Nature of the series: Anti tumor activity on Ehrlich Ascites Carcinoma (EAC) bearing mice. Type of series: in vivo. Particulars: for % Tumor growth inhibition / Ascitic fluid volume (ml) Mean ± SE / Tumor cells in ascitic fluid (×10^7) Mean ± SE: nine days, day 12. The source says:
Non-inbred swiss albino mice from an in-house colony were used in the present study. The breeding and experimental animals were housed in standard size polycarbonate cages providing internationally recommended space for each animal. Animals were fed balanced mice feed supplied by MIs Ashirwad Industries, Chandigarh (India) and autoclaved water was available ad libitum. Animals were cared as per the guide for the care and use of laboratory animals (1996), ILAR, Washington D.C. They were housed in controlled conditions of temperature (23±2° C.), humidity (50-60%) and 12:12 hrs of light: dark cycle. The study and the number of animals used were approved by the institutional animal ethics committee, IIIM, Jammu, India. The study was conducted as per the protocols of National Cancer Institute (NCl), USA (Geran et al., 1972).
Ehrlich Ascites Carcinoma (EAC) was propagated by transplanting 1×10^7 cells from an animal bearing 8-10 days old Ehrlich Ascites Carcinoma, into the peritoneal cavity of non-inbreed swiss mice. For testing, mice of the same sex weighing 20 ±3 g bearing ascites tumor were selected. 1×10^7 cells obtained from an animal bearing 8-10 days old ascites tumor were injected into peritoneal cavity of all animals used for testing (0 Day). On next day animals were randomized and divided into test groups (7 animals in each test group) and one tumor control group (10 animals). Test groups were treated with different doses of Parthenin (10 mg/kg, 25 mg/kg and 50 mg/kg) and its derivative Compound-17 (10 mg/kg, 25 mg/kg and 50 mg/kg, 100 mg/kg and 200 mg/kg) suspension in 1% gum acacia in their respective group intraperitonealy for nine consecutive days. Another test group was administered 5 FU @ 20 mg/kg i.p and served as positive control. The tumor control group was similarly administered normal saline (0.2 ml i.p). The percent tumor growth inhibition were measured on day 12 with respect to volume of ascitic fluid and the number of tumor cells in the ascitic fluid of peritoneal cavity (Geran et al., 1972; Singh et al., 2007).
The percent tumor growth inhibition was calculated as follow. % growth inhibition=100×(Average no. of cells in control group−Average no. of cells in test group)/Average no. of cells in control group Results: […]

A further series relates to MOLT-4 cells. Nature of the series: DNA cell cycle analysis by flow cytometry. The class given is cell-based, human. Particulars: for Sub G1 population: 24 hrs. Here is the method:
Effect of “Compound-17” on DNA content by cell cycle phase distribution was assessed using human leukemia MOLT-4. The MOLT-4 cells (1×10^6 cells/ml) in RPMI-1640 medium were incubated with “Compound-17” (1, 10, 50 and 100 μM) for 24 hrs. The cells were then washed twice with ice-cold PBS, harvested, fixed with ice-cold PBS in 70% ethanol, and stored at −20° C. for 30 min. After fixation, the cells were incubated with RNase A (0.1 mg/ml) at 37° C. for 30 min, stained with propidium iodide (50 μg/ml) for 30 min on ice in dark, and then measured for DNA content using BD-LSR Flow cytometer (Becton Dickinson, USA) equipped with electronic doublet discrimination capability using blue (488 nm) excitation from argon laser. Data were collected in list mode on 10,000 events for FL2-A vs. FL2-W and analyzed (FIG. 3).^3d

For a further series, the system named is human cancer cell lines. Nature of the series: In vitro cytotoxicity screening, human cancer cell lines in general. The class given is cell-based. The note with it: all the cell lines used, read-out: growth inhibition of human cancer cell lines. Here is the method:
as §1, §2

A further series relates to DU-145. The series is described as follows: In vitro cytotoxicity screening (sulphodamine B dye), DU-145. The class given is cell-based. Particulars: Homo sapiens.
Another series relates to SW-620. Nature of the series: In vitro cytotoxicity screening (sulphodamine B dye), SW-620. Type of series: cell-based. The note with it: Homo sapiens.

A value given as a limit tells only on which side of the number the result lay.

For `C[C@H]1CC[C@@H]2[C@@H](OC(=O)C23CC(c2c4ccccc4cc4ccccc24)=NO3)[C@]2(C)C(=O)C=C[C@@]12O` (stereo partly drawn) [Compound -17], the inhibition – broadly, how much of the control response was suppressed – at 5 µM with Hep-2 was 71%; in the series with human cancer cell lines it was ≥ 70%; in the series on DU-145 (at 5 μM, DU-145, read-out: cell growth inhibition) it was 85%; in the series on SW-620 (at 5 μM, SW-620, read-out: cell growth inhibition), 72%. Also, the “% Tumor growth inhibition” value in series [1] (10 mg/kg i.p.) is 7.74%; in series [1] (25 mg/kg i.p.), 19.16%; in series [1] (50 mg/kg i.p.) it was 27.23%; in series [1] (100 mg/kg i.p.), 60.50%. For the same compound, the “Ascitic fluid volume (ml) Mean ± SE” value was found to be 4.07 ± 0.35 mL in series [1] (10 mg/kg i.p.), 3.62 ± 0.32 mL in series [1] (25 mg/kg i.p.), 2.85 ± 0.37 mL in series [1] (50 mg/kg i.p.) and 2.07 ± 0.33 mL in series [1] (100 mg/kg i.p.). For the same compound, the “Tumor cells in ascitic fluid (×10^7) Mean ± SE” value was 78.42 ± 2.90 ×10^7 in series [1] (10 mg/kg i.p.), 68.71 ± 3.16 ×10^7 in series [1] (25 mg/kg i.p.), 61.85 ± 4.20 ×10^7 in series [1] (50 mg/kg i.p.) and 33.57 ± 2.60 ×10^7 in series [1] (100 mg/kg i.p.). Also, the “mortality of test animals” value in series [1] (200 mg/kg i.p., EAC bearing mice) is “All animals died by 3rd day”. For the same compound, the “Sub G1 population” value in the series on MOLT-4 cells (1 μM) is given as 6.58%; in the series on MOLT-4 cells (10 μM), 33.09%; in the series on MOLT-4 cells (50 μM), 33.2%; in the series on MOLT-4 cells (100 μM), 55%. In addition, the “blockage of G1 phase of cell cycle” value in the series with MOLT-4 cells (100 μM) was “complete blockage of G1 phase”. Besides, the results for the IC50 in the series on DU-145 (DU-145 prostate cancer cell line) and with SW-620 (SW-620 colon cancer cell line) were 4.6 µM and 4.3 µM, respectively.

The values are drawn from patent publication US8609858B2, “Spiro derivatives of parthenin as novel anticancer agents” (Council of Scientific & Industrial Research, priority 2008, dated 2013).
